Key:
[1] = test system: permeabilized chromaffin cells; conditions: Blanes-Mira et al. 2002; cited from earlier work
[2] = test system: human muscle cells and motor neurons derived from hiPSC co-cultures; test: Contraction frequency in human muscle cell / hiPSC motor neuron co-cultures; assay type: cell-based; conditions: 0.5 mg/mL
Description: The potential of said peptide Ac-SEQ ID NO: 8-NH2 to modulate the contraction frequency was evaluated in vitro using human muscle cells and motor neurons derived from hiPSC co-cultures, by means of live-imaging video of localized contractile muscle fibers recorded with an InCell 2200 automated microscope during 60 seconds, before and after treatment (after treatment, at each of the established timepoints).
Human muscle cells were cultivated at a density of 1×10^6 cells in T75 cm^2 flasks and then transferred to 96 well plates for differentiation. Motor neurons derived from hiPSC were transferred onto the 96 well plates containing the muscle cells in a differentiation medium. Co-cultures were maintained for 10 days in order to generate neurons junctions with muscle fibers. Spontaneous contractions were observed within 5 days.
Co-cultures were then treated with control medium (basal), 1 μM α-bungarotoxin, 0.5 mg/mL of acetyl hexapeptide-8 as a benchmark reference and 0.05 or 0.1 mg/mL of peptide Ac-SEQ ID NO: 8-NH2. Movies of co-cultures were recorded during 60 seconds before treatment and, after 30 minutes of incubation, movies were recorded again during 60 seconds. The culture plate was incubated again for 1 h 30 min with compounds (2 h of total incubation), and movies of co-cultures were recorded again during 60 seconds. The culture plate was incubated again for a total of 24 h with compounds and at the end of the incubation movies were recorded again during 60 seconds. Finally, compounds were washed out and a last recording after 24 h from said washed out of the compounds was done to assess an eventual recovery of muscle contractions (recovery).
Frequencies of contraction were calculated before and after each incubation. For each culture condition, 6 wells were analyzed.

SH-SY5Y cells = test: Exocytosis levels and delay (fluorescent exocytosis reporter); assay type: cell-based, human; conditions: 1 mg/mL, 1 hour, PMA + ionomycin, vs non-treated cells
Description: The potential of said peptide Ac-SEQ ID NO: 8-NH2 to modulate the exocytosis of vesicles containing neurotransmitters from a neuroblastoma cell line was evaluated in vitro using SH-SY5Y cells, by fluorescence imaging using a Zeiss axiovert 200 inverted epifluorescence microscope with a 20× objective and a Xenon lamp.
SH-SY5Y cells (Sigma, USA) were cultured in T25 flasks in supplemented medium (DMEM/F12, Gibco, USA). Above 90% confluence, cells were trypsinized with 1 ml of 0.5% (v/v) Trypsin-EDTA. Next, 5 mL of said supplemented medium was added and cell concentration determined. Cells were seeded onto polyLysine-coated 12 mm-treated coverslips in 24 well-plates at 15×10^4 cells/well in supplemented medium (Gibco, USA) and incubated at regular conditions (37° C., 5% CO2). After 24 h cell seeding, cells were transfected with exocytosis reporter using Lipofectamine™ 3000 (Invitrogen, USA) following manufacturer's instructions. Reporter construct contained fusion protein made up of intraluminal-specific proteins and a pH-sensitive fluorescent protein.
For exocytosis monitorization, after 48 h of protein expression, cells were incubated with 0.01 mg/mL of Ac-SEQ ID NO: 8-NH2 peptide or 1 mg/mL of the benchmark acetyl hexapeptide-8 for 1 h at 37° C. and 5% CO2. Non-treated cells were used as basal control. […] Fluorescence imaging was done for the last 10 min of the stimulation protocol. Fluorescence signal of exocytosis reporter was monitored employing 483-512 nm excitation-filter and 525-530 nm emission-filter. […]
Non-treated cells were assayed in N=4 independent experiments with n=16 coverslips (483 cells measured), acetyl hexapeptide-8-treated cells in N=3 independent experiments with n=10 coverslips (328 cells measured) and Ac-SEQ ID NO: 8-NH2-treated cells in N=3 independent experiments with n=8 coverslips (240 cells measured). Cells were selected to individually monitor fluorescence intensity and time-course. Fluorescence peak evoked by ionomycin addition was used to quantify exocytosis by calculating the Area under the curve (AUC) using GraphPad software. Two parameters were defined and analyzed: • Exocytosis levels: For individual cells, total peak area was obtained from AUC analysis and was normalized by the baseline that was defined as fluorescence intensity 3-cycles before lonomycin injection. • Exocytosis delay: For individual cells, response time (min) was obtained from AUC analysis as time frame between lonomycin injection (Y) and initiation of peak (firstX).
Fluorescence values were further normalized as percentage change to non-treated cells on each experiment as: (exocytosis level of treated cells/exocytosis levels non-treated cells)×100 and (response time of treated cells/response time of non-treated cells)×100. […]

Substance: acetyl hexapeptide-8 [reference compound]
- inhibition of exocytosis, maximum values [1]: 40%
- muscle contraction frequency with regard to the basal non-treated cells ([2]; after 30 min): 18%
- muscle contraction frequency with regard to the basal non-treated cells ([2]; after 24 h): 45%
- muscle contraction frequency with regard to the basal non-treated cells ([2]; after washout): 100%
- change of exocytosis level (SH-SY5Y cells): 7%
- exocytosis response time delay (SH-SY5Y cells): 67%

— patent US11634458B2, “Peptides and compositions for use in cosmetics and medicine” (LIPOTRUE, S.L., priority 2018, dated 2023)
